US7728033B2, “Mycophenolate mofetil in diabetic nephropathy” (Clinigene International Private Limited, priority 2003, dated 2010)

Experiments:
[1] = tested on: patients with type 1 diabetes mellitus and diabetic nephropathy; details: cited from earlier work
Diabetic rats = details: 8 months; cited from earlier work
[2] = tested on: patients with diabetic nephropathy; experiment: 24-hour urine protein (proteinuria), open-labeled randomized study; type: in vivo, human; set-up: Mean 24 h Urine protein, 1 month after treatment at V3 / Result Difference 24 h Urine protein, V3 (1 month) vs baseline V2 / Mean 24 h Urine protein, 3 month after treatment at V4: unit not given here
Description: In this study, a total of 30 patients were planned of which 18 were randomized and subjected to enter into one of the studies in which the patient groups each received MMF alone, lisinopril alone, or a combination of both MMF and lisinopril.
The primary end-point for this study was the proteinuria value obtained from the patients via 24-hour urine protein which was measured using the Calorimetric method Pyrogallol Red/SDS liquid stable single reagent.
(§1) Evaluation of the effects of MMF or ACE inhibitors alone or in combination on the status of proteinuria in patients with diabetic nephropathy was an open-labeled, randomized study. This study consisted of three arms as shown below. • 1. treatment with MMF alone • 2. treatment with combination of MMF and lisinopril • 3. treatment with lisinopril alone In addition, there were three phases of the study as shown below.
Phase 2: Treatment Phase (6 months): Every patient who qualified the screening phase was assigned one of the treatment arms. During this phase, patients were monitored closely and efficacy and safety parameters are assessed every month.
(§2) Study Products and Dosage: • 1. MMF: The dose of MMF given during the study was 500 mg per oral twice a day throughout the study. • 2. Lisinopril: The starting dose of lisinopril given in the study was 5 mg per oral twice a day. In case of hypertensive patients, the dose could be titrated upwards based on investigator's discretion, which in turn was based on the patient's “safety end point”. • 3. MMF+Lisinopril: In the patients who received both the drugs, the dose of MMF was 500 mg per oral twice a day and lisinopril was 5 mg per oral twice a day. In the case of hypertensive patients, the dose of lisinopril could be titrated upwards based on investigator's discretion, which in turn was based on the patient's “safety end point”.

[3] = tested on: patients with IgA nephropathy; details: MMF 1-1.5g per day vs Prednisone 30-40 mg per day; followed to 72 weeks; preliminary report; cited from earlier work
[4] = tested on: patients with diabetic nephropathy; experiment: Estimated GFR (Cockcroft-Gault formula), open-labeled randomized study; type: in vivo, human
Description: A secondary end-point for this study was the GFR value obtained for each patient. This Secondary Endpoint included Estimated GFR, which was calculated using the following formulae: […]
Once all data was collected, Glomerular Filtration Rate GFR) was determined by the Cockcroft-Gault formula.
as §1, §2

[5] = tested on: patients with lupus nephritis; details: systemic lupus erythomatosis; 0.5 to 1.5 g/d; cited from earlier work
[6] = Benefited patients, MMF alone 500 mg per oral twice a day
[7] = Benefited patients, MMF alone 500 mg twice daily
[8] = Not benefited patients, MMF alone 500 mg per oral twice a day
[9] = Not benefited patients, MMF alone 500 mg twice daily
[10] = Benefited patients, lisinopril alone 5 mg twice daily
[11] = Not benefited patients, lisinopril alone 5 mg twice daily

C[C@H](CS)C(=O)N1CCC[C@H]1C(=O)O [Captopril]
progression of renal disease [1]: prevents or delays the progression of renal disease

COc1c(C)c2c(c(O)c1C/C=C(\C)CCC(=O)OCCN1CCOCC1)C(=O)OC2 [MMF, mycophenolate mofetil]
albuminuria, glomerular macrophage infiltration and glomerulosclerosis (Diabetic rats): did prevent
effect on blood pressure, glomerular dynamics or blood glucose levels (Diabetic rats): no effect
Mean 24 h Urine protein, 1 month after treatment at V3 [2, 6]: 112.73
Result Difference 24 h Urine protein, V3 (1 month) vs baseline V2 [2, 6]: −203.93
Mean 24 h Urine protein, 3 month after treatment at V4 [2, 7]: 260.8
Result Difference 24 h Urine protein, V4 (3 month) vs baseline V2 [2, 7]: −136.6
patients with reduced proteinuria ([2]; MMF alone 500 mg twice daily, at V4 at the end of 3 months): 67%
patients with reduced proteinuria ([2]; MMF alone, after 1 month of treatment (V3 vs V2)): 67%
Mean 24 h Urine protein, 1 month after treatment at V3 [2, 8]: 696.3
Result Difference 24 h Urine protein, V3 (1 month) vs baseline V2 [2, 8]: 361.7
Mean 24 h Urine protein, 3 month after treatment at V4 [2, 9]: 305.5
decreasing proteinuria, protecting renal function and decreasing blood lipid levels [3]: superior to Prednisone
Mean GFR, 1 month after treatment at V3 [4, 6]: 89.3 mL/min
Result Difference GFR, V3 (1 month) vs baseline V2 [4, 6]: 0.27 mL/min
Mean GFR, 3 month after treatment at V4 [4, 7]: 81.85 mL/min
Result Difference GFR, V4 (3 month) vs baseline V2 [4, 7]: -1.35 mL/min
Mean GFR, 1 month after treatment at V3 [4, 8]: 75.26 mL/min
Result Difference GFR, V3 (1 month) vs baseline V2 [4, 8]: 4.40 mL/min
Mean GFR, 3 month after treatment at V4 [4, 9]: 49.9 mL/min
tolerability [5]: well tolerated

NCCCC[C@H](N[C@@H](CCc1ccccc1)C(=O)O)C(=O)N1CCC[C@H]1C(=O)O [lisinopril]
Mean 24 h Urine protein, 1 month after treatment at V3 [2, 10]: 236.66
Mean 24 h Urine protein, 3 month after treatment at V4 [2, 10]: 161.15
Mean 24 h Urine protein, 6 month after treatment at V5 [2, 10]: 248.4
Result Difference 24 h Urine protein, V3 (1 month) vs baseline V2 [2, 10]: −133.6
Result Difference 24 h Urine protein, V4 (3 month) vs baseline V2 [2, 10]: −268.75
Result Difference 24 h Urine protein, V5 (6 month) vs baseline V2 [2, 10]: −239.6
Mean 24 h Urine protein, 1 month after treatment at V3 [2, 11]: 211.25
Mean 24 h Urine protein, 3 month after treatment at V4 [2, 11]: 289.2
Mean 24 h Urine protein, 6 month after treatment at V5 [2, 11]: 626
Result Difference 24 h Urine protein, V3 (1 month) vs baseline V2 [2, 11]: 53.73
Result Difference 24 h Urine protein, V4 (3 month) vs baseline V2 [2, 11]: 101.47
Result Difference 24 h Urine protein, V5 (6 month) vs baseline V2 [2, 11]: 254.2
patients with reduced proteinuria ([2]; lisinopril alone 5 mg twice daily, at the end of 1 month): 42%
patients with reduced proteinuria ([2]; lisinopril alone 5 mg twice daily, at the end of 3 month): 40%
patients with reduced proteinuria ([2]; lisinopril alone 5 mg twice daily, at the end of 6 month): 50%
Mean GFR, 1 month after treatment at V3 [4, 10]: 79.16 mL/min
Mean GFR, 3 month after treatment at V4 [4, 10]: 89.55 mL/min
Mean GFR, 6 month after treatment at V5 [4, 10]: 105.9 mL/min
Result Difference GFR, V3 (1 month) vs baseline V2 [4, 10]: -0.09 mL/min
Result Difference GFR, V4 (3 month) vs baseline V2 [4, 10]: 7.95 mL/min
Result Difference GFR, V5 (6 month) vs baseline V2 [4, 10]: 28.5 mL/min
Mean GFR, 1 month after treatment at V3 [4, 11]: 63.97 mL/min
Mean GFR, 3 month after treatment at V4 [4, 11]: 68.76 mL/min
Mean GFR, 6 month after treatment at V5 [4, 11]: 76.4 mL/min
Result Difference GFR, V3 (1 month) vs baseline V2 [4, 11]: 1.91 mL/min
Result Difference GFR, V4 (3 month) vs baseline V2 [4, 11]: 0.13 mL/min
Result Difference GFR, V5 (6 month) vs baseline V2 [4, 11]: -9.4 mL/min
